Data published in patent US12668770B2 (priority 2017, dated 2026).

Legend:
[1] = system: ΔNRT strain (NRT gene-disrupted strain); type: cell-based, Nannochloropsis oculata; parameters: key to viability, ΔNRT strain: −: Not grown; +: Suppressed in growth, (somewhat) dye fading; ++: Suppressed in growth; +++: Fully grown
[2] = system: WT strain of Nannochloropsis oculata NIES-2145; type: cell-based; parameters: key to viability, WT strain: −: Not grown; +: Suppressed in growth, (somewhat) dye fading; ++: Suppressed in growth; +++: Fully grown
[3] = system: ΔNRTΔNR strain (NRT-NR gene-disrupted strain); type: cell-based, Nannochloropsis oculata; parameters: key to viability, ΔNRTΔNR strain: −: Not grown; +: Suppressed in growth, (somewhat) dye fading; ++: Suppressed in growth; +++: Fully grown
[4] = system: ΔNR strain (NR gene-disrupted strain); type: cell-based, Nannochloropsis oculata; parameters: key to viability, ΔNR strain: −: Not grown; +: Suppressed in growth, (somewhat) dye fading; ++: Suppressed in growth; +++: Fully grown

Compound: [K+].[O-][Cl+2]([O-])[O-] [KClO3, potassium chlorate]
- growth of ΔNRT strain (Table 2) [1]: growth was confirmed
- growth of ΔNRT strain on chloric acid-containing agar medium (FIG. 7) [1]: growth was also confirmed
- viability, ΔNRT strain [1]: − and ++
- growth of WT strain on chloric acid-containing agar medium (FIG. 7) [2]: killed
- viability, WT strain [2]: −
- growth of ΔNRTΔNR strain (Table 2) [3]: growth was able to be achieved
- growth of ΔNRTΔNR strain on chloric acid-containing agar medium (FIG. 7) [3]: more favorable growth was observed
- viability, ΔNRTΔNR strain [3]: + and +++ and ++
- growth of ΔNR strain on chloric acid-containing agar medium (FIG. 7) [4]: growth was unable to be confirmed
- viability, ΔNR strain [4]: −
